This is an account of results in PubChem BioAssay (NCI).

Experiment in all cases: NCI anticancer screen, dose series, 48 h
Assay [1] deals with SK-OV-3 ovarian.
The subject of assay [2] is BT-549 breast.
In assay [3] the test system is SK-MEL-5 melanoma.
The test system of assay [4] is HL-60(TB) leukemia.
Assay [5] concerns NCI-H226 lung.
In assay [6] the test system is OVCAR-8 ovarian.
Assay [7] deals with LOX IMVI melanoma.
In assay [8] the test system is SF-539 CNS.
Assay [9] relates to SNB-75 CNS.
The subject of assay [10] is COLO 205 colon.

“And” between values parts separate entries of the source, which are not always exact repeats. Equal values may be shown once.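 Where inhibition never reached the appropriate level, the endpoint shown equals the highest concentration tested. Otherwise, values were interpolated linearly from a five-concentration, 48-hour dose response in 96-well plates. Here, GI50 denotes the concentration required for 50% inhibition of growth. TGI: concentration producing complete growth inhibition.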

For the molecule `C=C1C(=O)OC2CC(C)C3CC(O)OC(OCC)C3(C)CC12` (stereo not given), the TGI in assay [1] is 87.2 µM; in [2], more than 58.4 µM; in assay [3] it was 31.7 µM; in assay [4], more than 30 µM; in assay [5], 63.1 µM; in assay [6], 31.4 µM. The TGI in assay [7] stood at 17.4 µM; in [8], 35.4 µM; in assay [9] it was 50.8 µM; in [10], 33.5 µM.

As for `COc1ccc(C(O)c2cc3c(N)c(C(=O)Nc4cccc(Cl)c4)sc3nc2C)cc1` (stereo not given), the GI50 in [1] was 1.78 µM; in assay [2], 2.09 µM; in assay [3], 1.17 µM; in [4], 0.868 µM; in assay [5], 1.63 µM; in assay [6], 1.45 µM. The GI50 in [7] is 1.71 µM; in [8], 0.858 µM; in [9], 0.22 µM; in assay [10], 2.79 µM. For the same molecule, the TGI in assay [1] is more than 40.5 µM; in assay [2], more than 38.5 µM; in assay [3], more than 32 µM; in assay [4], 2.78 µM; in assay [5] it was more than 43 µM; in [6] it was more than 47.8 µM. Further, the TGI is more than 40.7 µM in assay [7], 16.6 µM in assay [9] and 25.2 µM in [10].

In the case of `CCN(c1cc(-c2ccc(CN3CCOCC3)cc2)cc(C(=O)NCc2c(C)cc(C)[nH]c2=O)c1C)C1CCOCC1`, the GI50 in assay [1] was 52.9 µM; in assay [2], 17.3 µM; in [3], 16.3 µM; in assay [4] it was 17.5 µM; in assay [5], 16.5 µM; in [6] it was 37.9 µM. In addition, the GI50 is 15.9 µM in assay [7], 16.3 µM in assay [8], 16.7 µM in [9] and 18.1 µM in [10]. The TGI in assay [1] was more than 100 µM; in [2], 37.4 µM; in assay [3], 31.7 µM; in assay [4] it was 56.2 µM; in [5] it was 40.8 µM; in assay [6] it was more than 100 µM. Moreover, the TGI in assay [7] is 30.3 µM; in [8], 33.2 µM; in [9], more than 91.9 µM; in assay [10], 34.9 µM.

Take `Cc1nc2ccc(NC(=O)CCNC(=O)CCCc3ccc(CC(C(=O)O)C(=O)O)cc3)cc2s1`: the GI50 in assay [1], in assay [2], in [3], in assay [4], in [5] and in assay [6] was more than 100 µM each time. Further, the GI50 in [7], in assay [8], in assay [9] and in assay [10] was more than 100 µM in each case. Besides, the TGI in assay [1], in assay [2], in [3], in assay [4], in assay [5] and in assay [6] was more than 100 µM each time. Besides, the TGI in assay [7], in assay [8], in assay [9] and in assay [10] was more than 100 µM each time.

`CN(C)CCSS(=O)(=O)O`: the TGI in [1], in assay [2], in assay [3], in assay [4], in [5] and in assay [6] was more than 100 µM each time. Moreover, the TGI in [7], in [8], in assay [9] and in [10] was more than 100 µM in each case.

On to `CC(C)=CCC(OC(=O)C=C(C)C)C1=CC(=O)c2c(O)ccc(O)c2C1=O` (stereo not given), for which the GI50 was 21.2 µM in assay [1]; 0.59 µM in assay [2]; 4.15 µM in [3]; 1.99 µM in assay [5]; 2.27 µM in assay [6]; 2.02 µM in assay [8]. Also, the GI50 in assay [9] was 3.87 µM; in [10], 0.751 µM. In addition, the TGI is 49.8 µM and 12.4 µM in [1]; 1.98 µM in [2]; 14.4 µM and 1.59 µM in assay [3]; 1.09 µM and 0.79 µM in assay [4]; 4.02 µM and 6.72 µM in assay [5]; 7.19 µM and 2.98 µM in assay [6]. Also, the TGI is 0.894 µM and 3.07 µM in assay [7]; 4.46 µM and 4.93 µM in assay [8]; 16.3 µM and 13.7 µM in assay [9]; 2.12 µM and 1.37 µM in assay [10].

In the case of `Cc1nc2c(n1C)C(=O)c1ccccc1C2=O`, the GI50 was more than 100 µM in assay [1]; more than 100 µM in [2]; 22 µM in [3]; 46.8 µM in [4]; more than 100 µM in assay [5]; more than 100 µM in assay [6]. Also, the GI50 in assay [7] is 38.5 µM; in assay [8], 85.5 µM; in [9] it was more than 100 µM; in [10], 37.4 µM. Also, the TGI in assay [1] is more than 100 µM; in assay [2] it was more than 100 µM; in [3], 85.2 µM; in assay [4], more than 100 µM; in [5], more than 100 µM; in assay [6], more than 100 µM. The TGI in assay [7], in assay [8], in [9] and in assay [10] was more than 100 µM throughout.

Regarding `C=C1CCC2(C#N)[C@H]3[C@H](CC[C@@H]2C)[C@@H](C)C[C@@H](CC(C)(C)NC(=O)CN2CCC2=O)[C@H]13` (stereo not given in full), the GI50 was 15.8 µM in assay [1]; 2.96 µM in [2]; 4.24 µM in assay [3]; 5.05 µM in assay [4]; 11.2 µM in assay [5]; 4.94 µM in assay [6]. The GI50 in [7] is 6.17 µM; in assay [8], 5.98 µM; in [9], 1.57 µM; in assay [10] it was 2.56 µM. For the same molecule, the TGI in assay [1] amounted to 50.2 µM; in assay [2], 17.3 µM; in [3], 16.2 µM; in assay [4], 37 µM; in assay [5], 33.7 µM; in assay [6], 38.1 µM. In addition, the TGI is 19.7 µM in [7], 19.4 µM in assay [8], 10.2 µM in [9] and 13 µM in assay [10].

With `S=c1nc(N/N=C/c2ccco2)c2cn[nH]c2[nH]1`, the GI50 is 92.7 µM in assay [1]; 75.2 µM in assay [2]; 28.2 µM in assay [3]; 77.1 µM in assay [4]; more than 100 µM in assay [5]; 69.2 µM in assay [6]. Besides, the GI50 was 58.7 µM in [7], 43.3 µM in assay [8], more than 100 µM in assay [9] and 29.5 µM in assay [10]. For the same molecule, the TGI in [1], in [2], in assay [3], in assay [4], in assay [5] and in assay [6] was more than 100 µM in each case. Besides, the TGI is more than 100 µM in assay [7], more than 100 µM in assay [8], more than 100 µM in assay [9] and 90.8 µM in assay [10].

Turning to `CC1=Nc2ccccc2/C1=C\c1c(C)[nH]c2ccccc12`, the TGI in assay [1] was 51.8 µM; in assay [2], 15.1 µM; in assay [3], 28.1 µM; in [4], 50.2 µM; in assay [5] it was 33.2 µM; in assay [6], 27 µM. For the same molecule, the TGI was found to be 62.4 µM in assay [7], 77.3 µM in [8], 71.5 µM in assay [9] and 53.2 µM in [10].

Take `OCc1ccc(-c2cscc2-c2ccc(CO)o2)o1`: the GI50 in assay [1] is 8.98 µM; in assay [2] it was more than 87.5 µM; in [3] it was 16.2 µM; in assay [4], more than 100 µM; in [5], 0.112 µM; in [6] it was 29.9 µM. Also, the GI50 in assay [7] is more than 100 µM; in assay [8], more than 100 µM; in assay [9] it was 34.5 µM; in assay [10] it was 1.97 µM. Moreover, the TGI is 50.3 µM in assay [1]; more than 100 µM in [2]; more than 100 µM in assay [3]; more than 100 µM in assay [4]; 0.485 µM in assay [5]; more than 100 µM in [6]. Besides, the TGI was more than 100 µM in assay [7], more than 100 µM in assay [8], more than 100 µM in [9] and 4.83 µM in assay [10].

As for `Cc1c2c(c(C)c3c4c(oc13)CCCC4)C=NCC2`, the TGI worked out at 38.1 µM in assay [1]; 33.7 µM in [2]; 30.8 µM in [3]; 43.4 µM in assay [4]; 31.5 µM in assay [5]; 23.1 µM in [6]. The TGI in assay [7] is 38.3 µM; in [8], 28.9 µM; in assay [9] it was 32.4 µM; in assay [10], 48.5 µM.

Consider `Cc1cc(O)c(C2=NN(c3ccc(S(N)(=O)=O)cc3)C(c3ccc(Cl)cc3)C2)c(C)c1Cl` (stereo not given), for which the GI50 in assay [1] is 7.75 µM; in assay [2], 13.1 µM; in [3], 9.59 µM; in assay [4] it was 7.84 µM; in [5], 10.5 µM; in [6] it was 5.75 µM. For the same molecule, the GI50 in assay [7] was 2.34 µM; in assay [8], 12.3 µM; in [9], 10.9 µM; in assay [10], 1.69 µM. Moreover, the TGI is 20.6 µM in [1]; 27.7 µM in assay [2]; 21.4 µM in assay [3]; 20.8 µM in assay [4]; 24.1 µM in assay [5]; 21.6 µM in [6]. The TGI in assay [7] was found to be 6.98 µM; in [8] it was 24.7 µM; in assay [9], 23.7 µM; in [10] it was 3.31 µM.

On to `Cn1cc(C2=C(c3cn(C)c4ccc(Cl)cc34)C(=O)NC2=O)c2ccccc21`, for which the GI50 was 2.87 µM in assay [1]; 3.56 µM in assay [2]; 3.47 µM in [3]; 1.4 µM in [4]; 4.56 µM in assay [5]; 5.16 µM in assay [6]. Besides, the GI50 in assay [7] was 2.74 µM; in assay [8] it was 1.28 µM; in assay [9], 0.709 µM; in assay [10], 1.67 µM. In addition, the TGI in [1] is more than 21 µM; in [2] it was 9.03 µM; in assay [3], 8.28 µM; in assay [4] it was 8.82 µM; in [5], 17.4 µM; in assay [6], more than 21.6 µM. For the same molecule, the TGI in assay [7] is 11.9 µM; in assay [8] it was 4.74 µM; in assay [9] it was more than 17.3 µM; in [10], 7.93 µM.

As for `C1CC2CN(CCCN3CCOCC3)C(C1)O2` (stereo not given), the TGI in assay [1], in assay [2], in [3], in assay [4], in assay [5] and in [6] was more than 100 µM throughout. Also, the TGI in assay [7], in assay [8], in [9] and in [10] was more than 100 µM in each case.

Turning to `c1cncc(CNCc2cccnc2)c1`, the TGI in [1], in [2], in assay [3], in assay [4], in assay [5] and in [6] was more than 100 µM each time. Besides, the TGI in assay [7], in assay [8], in assay [9] and in assay [10] was more than 100 µM throughout.

Consider `O=C1/C(=C/c2ccccc2)CN(C(=O)CCN2CCCC2)C/C1=C\c1ccccc1`, for which the TGI in assay [1] turned out to be 20.5 µM; in [2], 3.77 µM; in assay [3] it was 3.48 µM; in assay [4] it was 1.18 µM; in assay [5], 13.9 µM; in [6], 6.17 µM. Besides, the TGI in assay [7] was 1.85 µM; in [8], 5.4 µM; in [9], 13.5 µM; in [10] it was 3.25 µM.

With `Cc1ccc(S(=O)(=O)c2nc(-c3ccccc3)oc2S(C)=O)cc1` (stereo not given), the GI50 is 15.3 µM in assay [1]; 1.71 µM in [2]; 1.52 µM in [4]; 1.96 µM in assay [5]; 1.77 µM in [6]; 1.4 µM in assay [7]. For the same molecule, the GI50 in assay [8] is 1.55 µM; in assay [9], 2.69 µM; in assay [10], 1.72 µM. Further, the TGI in [1] amounted to 28.6 µM; in assay [2], 3.37 µM; in assay [4], 4.71 µM; in assay [5] it was 4.73 µM; in [6], 3.79 µM; in assay [7] it was 2.81 µM. Further, the TGI in assay [8] is 3.01 µM; in assay [9], 9.55 µM; in assay [10], 3.56 µM.
